Source: ChEMBL document CHEMBL1795319, “Design, synthesis and antifungal evaluation of 1-(2-(2,4-difluorophenyl)-2-hydroxy-3-(1H-1,2,4-triazol-1-yl)propyl)-1H-1,2,4-triazol-5(4H)-one” (2011)
≈ marks a conversion by molar mass, not a printed value.

Key:
Type in all cases: functional
Aspergillus fumigatus = assay: Antifungal activity against Aspergillus fumigatus by broth microdilution method
Cryptococcus neoformans = assay: Antifungal activity against Cryptococcus neoformans BLS108 after 72 hrs by micro-broth dilution method; conditions: BLS108, 72 h
Candida tropicalis = assay: Antifungal activity against Candida tropicalis by micro-broth dilution method
Candida albicans [1] = assay: Antifungal activity against Candida albicans SC5314 after 24 hrs by micro-broth dilution method; conditions: SC5314, 24 h
Trichophyton rubrum = assay: Antifungal activity against Trichophyton rubrum by micro-broth dilution method
Kluyveromyces marxianus = assay: Antifungal activity against Candida kefyr by micro-broth dilution method
Candida albicans [2] = assay: Antifungal activity against Candida albicans Y0109 after 24 hrs by micro-broth dilution method; conditions: Y0109, 24 h
Candida parapsilosis = assay: Antifungal activity against Candida parapsilosis by micro-broth dilution method; conditions: Lodderomyces parapsilosis

Compound	MIC80 (Aspergillus fumigatus) [µg/mL]	MIC80 (Cryptococcus neoformans) [µg/mL]	MIC80 (Candida tropicalis) [µg/mL]	MIC80 (Candida albicans [1]) [µg/mL]	MIC80 (Trichophyton rubrum) [µg/mL]	MIC80 (Kluyveromyces marxianus) [µg/mL]	MIC80 (Candida albicans [2]) [µg/mL]	MIC80 (Candida parapsilosis) [µg/mL]
O=c1n(-c2ccccc2)cnn1CC(O)(Cn1cncn1)c1ccc(F)cc1F (racemic)	> 64	64 (≈ 161 µM)	0.25 (≈ 0.628 µM)	1 (≈ 2.51 µM)	16 (≈ 40.2 µM)	0.25 (≈ 0.628 µM)	0.25 (≈ 0.628 µM)	4 (≈ 10 µM)
O=c1n(-c2ccc(F)cc2)cnn1CC(O)(Cn1cncn1)c1ccc(F)cc1F (racemic)	> 64	> 64	0.25 (≈ 0.6 µM)	1 (≈ 2.4 µM)	64 (≈ 154 µM)	0.25 (≈ 0.6 µM)	1 (≈ 2.4 µM)	4 (≈ 9.61 µM)
O=c1n(-c2ccc(Cl)cc2)cnn1CC(O)(Cn1cncn1)c1ccc(F)cc1F (racemic)	> 64	64 (≈ 148 µM)	0.0625 (≈ 0.144 µM)	0.0625 (≈ 0.144 µM)	16 (≈ 37 µM)	0.0156 (≈ 0.036 µM)	0.0625 (≈ 0.144 µM)	1 (≈ 2.31 µM)
O=c1n(-c2ccccc2Cl)cnn1CC(O)(Cn1cncn1)c1ccc(F)cc1F (racemic)	> 64	64 (≈ 148 µM)	1 (≈ 2.31 µM)	1 (≈ 2.31 µM)	64 (≈ 148 µM)	0.25 (≈ 0.578 µM)	1 (≈ 2.31 µM)	16 (≈ 37 µM)
O=c1n(-c2ccc(Br)cc2)cnn1CC(O)(Cn1cncn1)c1ccc(F)cc1F (racemic)	> 64	16 (≈ 33.5 µM)	0.0625 (≈ 0.131 µM)	1 (≈ 2.1 µM)	16 (≈ 33.5 µM)	0.0156 (≈ 0.0327 µM)	0.156 (≈ 0.327 µM)	1 (≈ 2.1 µM)
Cc1ccc(-n2cnn(CC(O)(Cn3cncn3)c3ccc(F)cc3F)c2=O)cc1 (racemic)	> 64	64 (≈ 155 µM)	0.25 (≈ 0.606 µM)	0.25 (≈ 0.606 µM)	64 (≈ 155 µM)	0.25 (≈ 0.606 µM)	1 (≈ 2.42 µM)	4 (≈ 9.7 µM)
COc1ccc(-n2cnn(CC(O)(Cn3cncn3)c3ccc(F)cc3F)c2=O)cc1 (racemic)	> 64	16 (≈ 37.3 µM)	0.0625 (≈ 0.146 µM)	1 (≈ 2.33 µM)	16 (≈ 37.3 µM)	0.0625 (≈ 0.146 µM)	0.0625 (≈ 0.146 µM)	1 (≈ 2.33 µM)
N#Cc1ccc(-n2cnn(CC(O)(Cn3cncn3)c3ccc(F)cc3F)c2=O)cc1 (racemic)	> 64	> 64	4 (≈ 9.45 µM)	1 (≈ 2.36 µM)	64 (≈ 151 µM)	16 (≈ 37.8 µM)	1 (≈ 2.36 µM)	1 (≈ 2.36 µM)
N#Cc1cccc(-n2cnn(CC(O)(Cn3cncn3)c3ccc(F)cc3F)c2=O)c1 (racemic)	> 64	0.25 (≈ 0.59 µM)	0.00024 (≈ 0.000567 µM)	0.00024 (≈ 0.000567 µM)	4 (≈ 9.45 µM)	0.00024 (≈ 0.000567 µM)	0.00024 (≈ 0.000567 µM)	0.00024 (≈ 0.000567 µM)
O=c1n(-c2ccc(Cl)c(Cl)c2)cnn1CC(O)(Cn1cncn1)c1ccc(F)cc1F (racemic)	> 64	0.25 (≈ 0.535 µM)	64 (≈ 137 µM)	4 (≈ 8.56 µM)	> 64	16 (≈ 34.2 µM)	16 (≈ 34.2 µM)	16 (≈ 34.2 µM)
O=c1n(-c2ccc([N+](=O)[O-])cc2)cnn1CC(O)(Cn1cncn1)c1ccc(F)cc1F (racemic)	> 64	64 (≈ 144 µM)	0.25 (≈ 0.564 µM)	1 (≈ 2.26 µM)	16 (≈ 36.1 µM)	0.25 (≈ 0.564 µM)	1 (≈ 2.26 µM)	16 (≈ 36.1 µM)
O=c1n(-c2nccs2)cnn1CC(O)(Cn1cncn1)c1ccc(F)cc1F (racemic)	> 64	64 (≈ 158 µM)	1 (≈ 2.47 µM)	0.25 (≈ 0.617 µM)	16 (≈ 39.5 µM)	1 (≈ 2.47 µM)	1 (≈ 2.47 µM)	0.25 (≈ 0.617 µM)
O=c1n(-c2nc(-c3ccc(Cl)cc3Cl)cs2)cnn1CC(O)(Cn1cncn1)c1ccc(F)cc1F (racemic)	> 64	64 (≈ 116 µM)	16 (≈ 29.1 µM)	16 (≈ 29.1 µM)	64 (≈ 116 µM)	4 (≈ 7.27 µM)	16 (≈ 29.1 µM)	64 (≈ 116 µM)
Cc1ccc(-n2cnn(CC(O)(Cn3cncn3)c3ccc(F)cc3F)c2=O)nc1 (racemic)	> 64	16 (≈ 38.7 µM)	64 (≈ 155 µM)	4 (≈ 9.68 µM)	16 (≈ 38.7 µM)	4 (≈ 9.68 µM)	4 (≈ 9.68 µM)	4 (≈ 9.68 µM)
Cc1ccnc(-n2cnn(CC(O)(Cn3cncn3)c3ccc(F)cc3F)c2=O)c1 (racemic)	> 64	0.00024 (≈ 0.000581 µM)	0.00024 (≈ 0.000581 µM)	0.00024 (≈ 0.000581 µM)	64 (≈ 155 µM)	0.0625 (≈ 0.151 µM)	0.00024 (≈ 0.000581 µM)	0.00024 (≈ 0.000581 µM)
CC(=O)Nc1ccc(-n2cnn(CC(O)(Cn3cncn3)c3ccc(F)cc3F)c2=O)cc1 (racemic)	> 64	> 64	16 (≈ 35.1 µM)	16 (≈ 35.1 µM)	> 64	> 64	4 (≈ 8.78 µM)	16 (≈ 35.1 µM)

Compound	MIC80 (Aspergillus fumigatus) [µg/mL]	MIC80 (Cryptococcus neoformans) [µg/mL]	MIC80 (Candida tropicalis) [µg/mL]	MIC80 (Candida albicans [1]) [µg/mL]	MIC80 (Trichophyton rubrum) [µg/mL]	MIC80 (Kluyveromyces marxianus) [µg/mL]	MIC80 (Candida albicans [2]) [µg/mL]	MIC80 (Candida parapsilosis) [µg/mL]
CCC(=O)Nc1ccc(-n2cnn(CC(O)(Cn3cncn3)c3ccc(F)cc3F)c2=O)cc1 (racemic)	> 64	> 64	16 (≈ 34.1 µM)	1 (≈ 2.13 µM)	> 64	64 (≈ 136 µM)	4 (≈ 8.52 µM)	4 (≈ 8.52 µM)
CCCC(=O)Nc1ccc(-n2cnn(CC(O)(Cn3cncn3)c3ccc(F)cc3F)c2=O)cc1 (racemic)	> 64	> 64	4 (≈ 8.27 µM)	4 (≈ 8.27 µM)	> 64	16 (≈ 33.1 µM)	4 (≈ 8.27 µM)	4 (≈ 8.27 µM)
CCCCC(=O)Nc1ccc(-n2cnn(CC(O)(Cn3cncn3)c3ccc(F)cc3F)c2=O)cc1 (racemic)	> 64	0.0625 (≈ 0.126 µM)	0.0625 (≈ 0.126 µM)	0.00097 (≈ 0.00195 µM)	> 64	64 (≈ 129 µM)	0.00024 (≈ 0.000482 µM)	0.00024 (≈ 0.000482 µM)
CCCCCC(=O)Nc1ccc(-n2cnn(CC(O)(Cn3cncn3)c3ccc(F)cc3F)c2=O)cc1 (racemic)	> 64	0.0625 (≈ 0.122 µM)	0.00097 (≈ 0.0019 µM)	0.00097 (≈ 0.0019 µM)	64 (≈ 125 µM)	4 (≈ 7.82 µM)	0.00024 (≈ 0.000469 µM)	0.00024 (≈ 0.000469 µM)
CCCCCCC(=O)Nc1ccc(-n2cnn(CC(O)(Cn3cncn3)c3ccc(F)cc3F)c2=O)cc1 (racemic)	> 64	0.0625 (≈ 0.119 µM)	64 (≈ 122 µM)	0.0039 (≈ 0.00742 µM)	64 (≈ 122 µM)	1 (≈ 1.9 µM)	0.0625 (≈ 0.119 µM)	1 (≈ 1.9 µM)
CCCCCCCC(=O)Nc1ccc(-n2cnn(CC(O)(Cn3cncn3)c3ccc(F)cc3F)c2=O)cc1 (racemic)	> 64	> 64	64 (≈ 119 µM)	4 (≈ 7.41 µM)	> 64	> 64	16 (≈ 29.7 µM)	64 (≈ 119 µM)
N#CCC(=O)Nc1ccc(-n2cnn(CC(O)(Cn3cncn3)c3ccc(F)cc3F)c2=O)cc1 (racemic)	> 64	> 64	1 (≈ 2.08 µM)	0.25 (≈ 0.52 µM)	16 (≈ 33.3 µM)	> 64	1 (≈ 2.08 µM)	1 (≈ 2.08 µM)
O=C(Nc1ccc(-n2cnn(CC(O)(Cn3cncn3)c3ccc(F)cc3F)c2=O)cc1)C1CC1 (racemic)	> 64	> 64	1 (≈ 2.08 µM)	0.0625 (≈ 0.13 µM)	> 64	> 64	0.0625 (≈ 0.13 µM)	0.25 (≈ 0.519 µM)
O=C(Nc1ccc(-n2cnn(CC(O)(Cn3cncn3)c3ccc(F)cc3F)c2=O)cc1)C1CCCCC1 (racemic)	> 64	> 64	> 64	> 64	16 (≈ 30.6 µM)	> 64	> 64	> 64
O=C(Nc1ccc(-n2cnn(CC(O)(Cn3cncn3)c3ccc(F)cc3F)c2=O)cc1)c1cccnc1 (racemic)	> 64	64 (≈ 123 µM)	4 (≈ 7.71 µM)	1 (≈ 1.93 µM)	64 (≈ 123 µM)	16 (≈ 30.9 µM)	1 (≈ 1.93 µM)	1 (≈ 1.93 µM)
O=C(Nc1ccc(-n2cnn(CC(O)(Cn3cncn3)c3ccc(F)cc3F)c2=O)cc1)c1ccccn1 (racemic)	> 64	> 64	> 64	1 (≈ 1.93 µM)	> 64	16 (≈ 30.9 µM)	4 (≈ 7.71 µM)	4 (≈ 7.71 µM)
O=C(Nc1ccc(-n2cnn(CC(O)(Cn3cncn3)c3ccc(F)cc3F)c2=O)cc1)c1ccco1 (racemic)	> 64	16 (≈ 31.5 µM)	1 (≈ 1.97 µM)	0.25 (≈ 0.493 µM)	> 64	4 (≈ 7.88 µM)	0.25 (≈ 0.493 µM)	0.0625 (≈ 0.123 µM)
O=C(Nc1ccc(-n2cnn(CC(O)(Cn3cncn3)c3ccc(F)cc3F)c2=O)cc1)c1cccs1 (racemic)	> 64	> 64	16 (≈ 30.6 µM)	0.25 (≈ 0.478 µM)	> 64	> 64	1 (≈ 1.91 µM)	4 (≈ 7.64 µM)
C[C@@H]1[C@H](O)[C@@H](C)/C=C/C=C/C=C/C=C/C=C/C=C/C=C/[C@H](O[C@@H]2O[C@H](C)[C@@H](O)[C@H](N)[C@@H]2O)C[C@@H]2O[C@](O)(C[C@@H](O)C[C@@H](O)[C@H](O)CC[C@@H](O)C[C@@H](O)CC(=O)O[C@H]1C)C[C@H](O)[C@H]2C(=O)O [AMPHOTERICIN B]	1 (≈ 1.08 µM)	1 (≈ 1.08 µM)	1 (≈ 1.08 µM)	0.25 (≈ 0.271 µM)	4 (≈ 4.33 µM)	0.25 (≈ 0.271 µM)	0.25 (≈ 0.271 µM)	0.25 (≈ 0.271 µM)
OC(Cn1cncn1)(Cn1cncn1)c1ccc(F)cc1F [FLUCONAZOLE]	> 64	1 (≈ 3.27 µM)	1 (≈ 3.27 µM)	0.25 (≈ 0.816 µM)	1 (≈ 3.27 µM)	4 (≈ 13.1 µM)	0.25 (≈ 0.816 µM)	0.25 (≈ 0.816 µM)
CCC(C)n1ncn(-c2ccc(N3CCN(c4ccc(OCC5COC(Cn6cncn6)(c6ccc(Cl)cc6Cl)O5)cc4)CC3)cc2)c1=O (stereo unspecified) [ITRACONAZOLE]	0.0625 (≈ 0.0886 µM)	0.0625 (≈ 0.0886 µM)	0.0625 (≈ 0.0886 µM)	0.0625 (≈ 0.0886 µM)	0.0625 (≈ 0.0886 µM)	0.0625 (≈ 0.0886 µM)	0.0625 (≈ 0.0886 µM)	0.0625 (≈ 0.0886 µM)
